Experimental findings from ChEMBL document CHEMBL1149325 (J Med Chem, 2004) are described below.

SMILES strings stand for the structures.

Series [1] has as its target Cyclin-dependent kinase 2/cyclin E (Homo sapiens, UniProt P24941).
For series [2], the species on record is Mus musculus.
Description: Percentage of compound bound to serum protein was determined
For series [3], the system named is Mus musculus. Briefly: Tmax in mice at 25 uM/kg i.p. administration. The format is functional, organism-based.
Series [4] relates to Mus musculus. Kind of series: Mean-residence time was determined for compound after intraperitoneal administration in mice at 25 uM/kg. In kind it is functional, organism-based.
Series [5] has as its system Mus musculus. Briefly: Area under curve was determined for compound after intraperitoneal administration in mice at 25 uM/kg. The format is functional, organism-based.
Series [6] is described as follows: Cmax in mice at 25 umol/kg i.p. administration. In kind it is ADME, organism-based. Further details: dose 25 umol/kg, route intraperitoneal. The conditions noted are these: mouse, in vivo, ip.
Series [7] deals with Mus musculus. Briefly: Half life after intraperitoneal administration in mice at 25 uM/kg. The format is functional, organism-based.
The species entered for series [8] is Mus musculus. Briefly: Log cell kill for A2780 tumor in mice. The format is functional.
Series [9] deals with P388.
Description: Increase in life span of the treated mice to those of control was determined
Series [10] concerns Mus musculus. Briefly: Half life after intraperitoneal administration in mice at 26 uM/kg. The format is functional, organism-based.
Series [11] can be described thus: Cmax in mice at 26 umol/kg i.p. administration. The format is ADME, organism-based. Details: dose 26 umol/kg, route intraperitoneal. The conditions noted are these: mouse, in vivo, ip.
Series [12] relates to Mus musculus. Kind of series: Area under curve was determined for compound after intraperitoneal administration in mice at 26 uM/kg. The format is functional, organism-based.
Series [13] has as its system P388. This is another data set of the same source.
Description: Maximum tolerated dose was determined against P338 tumor in mice after intraperitoneal administration daily for 7 days
Series [14] deals with Mus musculus. Kind of series: Mean-residence time was determined for compound after intraperitoneal administration in mice at 26 uM/kg. The format is functional, organism-based.
The species entered for series [15] is Mus musculus. The source holds these as a separate data set.
Description: Maximum tolerated dose in A2780 tumor in mice after intraperitoneal administration daily for 8 days
For series [16], the system named is Mus musculus. Briefly: Half life after intraperitoneal administration in mice at 18 uM/kg. The format is functional, organism-based.
The subject of series [17] is Mus musculus. Briefly: Area under curve was determined for compound after intraperitoneal administration in mice at 18 uM/kg. In kind it is functional, organism-based.
Series [18] concerns Mus musculus. Briefly: Mean-residence time was determined for compound after intraperitoneal administration in mice at 18 uM/kg. In kind it is functional, organism-based.
Series [19] deals with Mus musculus. Kind of series: Tmax in mice at 18 uM/kg i.p. administration. The format is functional, organism-based.
Series [20] is described as follows: Cmax in mice at 18 umol/kg i.p. administration. In kind it is ADME, organism-based. The following applies: mouse, in vivo, ip. Details: dose 18 umol/kg, route intraperitoneal.
Series [21] relates to Mus musculus. Briefly: Microsomal stability was determined in mouse liver microsomes after intraperitoneal administration in mice at 18 uM/kg. The format is functional. (Liver microsomes are a subcellular fraction often used to study metabolism.)
Series [22] relates to Mus musculus. Briefly: Tmax in mice at 23 uM/kg i.v. administration. In kind it is functional, organism-based.
The subject of series [23] is Mus musculus. Briefly: Half life after intravenous administration in mice at 23 uM/kg. In kind it is functional, organism-based.
A further series is described as follows: in vivo. The following applies: mouse, iv, 23 umol/kg.
Series [24] concerns Mus musculus. Briefly: Microsomal stability was determined in mouse liver microsomes after intravenous administration in mice at 23 uM/kg. The format is functional.
For series [25], the species on record is Mus musculus. Kind of series: Log cell kill for A2780 tumor in mice; […]. In kind it is functional.
Series [26] concerns Mus musculus. Kind of series: Mean-residence time was determined for compound intravenous administration in mice at 23 uM/kg. In kind it is functional, organism-based.
A short description of series [27]: Cmax in mice at 24 umol/kg i.p. administration. The format is ADME, organism-based. Further details: dose 24 umol/kg, route intraperitoneal. The following applies: mouse, in vivo, ip.

Description for in vivo: Cmax in mice at 23 umol/kg i.v. administration

For the compound `CC(C)(C)c1cnc(CSc2cnc(NC(=O)C3CCCCC3)s2)o1`, it took 300 µM to reach half-maximal inhibition in series [1] (IC50).
With `CN1CCC(C(=O)Nc2ncc(SCc3ncc(C(C)(C)C)o3)s2)CC1`, the Binding in the series filed under Mus musculus [2] was found to be 75%. Further, the Tmax in the series on Mus musculus [3] amounted to 30 min. Moreover, the MRT in the series with Mus musculus [4] stood at 1.1 h. Besides, in the series on Mus musculus [5], the AUC turned out to be 473 ng·h/mL. In series [6], the Cmax (usually the maximum level reached in the sampled fluid or tissue) came out at 1100 nM. The T1/2 with Mus musculus [7] worked out at 0.7 h.
Consider `CC(C)(C)c1cnc(CSc2cnc(NC(=O)[C@H]3CC[C@H](N)CC3)s2)o1`, for which, in the series filed under Mus musculus [2], the Binding is reported as 86%.
For `CC(C)(C)OC(=O)N1CCC(C(=O)Nc2ncc(SCc3ncc(C(C)(C)C)o3)s2)CC1`, the Binding in the series filed under Mus musculus [2] was 99%.
In the series listed under Mus musculus [8], `CC(C)(C)c1cnc(CSc2cnc(NC(=O)C3CCCNC3)s2)o1` (configuration not stated) showed an LCK of 1.6. This compound also registered a Binding in the series filed under Mus musculus [2] of 82%. This compound returned a Survival in the series with P388 [9] of 152%. In the series on Mus musculus [10], this compound registered a T1/2 of 2.2 h. For the same compound, the Cmax in [11] turned out to be 3.5 µM. This compound also gave an AUC with Mus musculus [12] of 4600 ng·h/mL. Also, the MTD was 20 mg/kg with P388 [13] and 22 mg/kg in the series filed under Mus musculus [15]. The compound also returned an MRT in the series on Mus musculus [14] of 3.5 h.
In the case of `CC(=O)Nc1ncc(SCc2ncc(C(C)(C)C)o2)s1`, the Binding in the series filed under Mus musculus [2] came to 83%. Besides, 5 µM corresponded to half-maximal inhibition in series [1] (IC50).
For `CC(C)(C)c1cnc(CSc2cnc(NC(=O)Cc3ccc(CNC(CO)CO)cc3)s2)o1`, in the series listed under Mus musculus [8], the LCK was 3.3. For the same compound, the Binding in the series listed under Mus musculus [2] worked out at 79%. Also, the T1/2 in the series on Mus musculus [16] amounted to 1.8 h. Also, in the series on Mus musculus [17], the AUC came out at 1320 ng·h/mL. Also, the MRT with Mus musculus [18] came to 2.9 h. In the series on P388 [9], this compound displayed a Survival of 140%. The Tmax in the series with Mus musculus [19] worked out at 1 h. Besides, the results for the MTD in the series with P388 [13] and in the series listed under Mus musculus [15] were 32 mg/kg and 26 mg/kg, respectively. Moreover, the concentration in [20] peaked (Cmax) at 800 nM. Also, the Activity with Mus musculus [21] was 0.22 nM min-1 (mg of protein)-1.
In turn, `CC(C)(C)c1cnc(CSc2cnc(NC(=O)[C@H]3CC[C@@H](N)CC3)s2)o1` came in with a Binding in the series filed under Mus musculus [2] of 68%. In the series with Mus musculus [17], this compound returned an AUC of 4660 ng·h/mL. Further, the Survival in the series with P388 [9] was 179%. Also, the Tmax in the series with Mus musculus [22] is 6 min. Also, in the series on Mus musculus [23], the T1/2 was 2.2 h. Further, the Cmax in the series “in vivo” turned out to be 13.6 µM. In addition, the Activity with Mus musculus [24] was 0.07 nM min-1 (mg of protein)-1. Further, the MTD in the series with P388 [13] and in the series listed under Mus musculus [15] was 8 mg/kg in each case. Besides, in the series filed under Mus musculus [25], the LCK was found to be 1.7. This compound gave an MRT in the series on Mus musculus [26] of 2.2 h.
Take `CC(C)(C)c1cnc(CSc2cnc(NC(=O)C3CCN(S(C)(=O)=O)CC3)s2)o1`: the Binding in the series listed under Mus musculus [2] turned out to be 84%.
In the series listed under Mus musculus [2], `CC(C)(C)c1cnc(CSc2cnc(NC(=O)C3CCN(CCO)CC3)s2)o1` came in with a Binding of 75%. Further, the Tmax in the series with Mus musculus [3] came out at 30 min. In addition, the Survival in the series on P388 [9] was determined as 140%. In the series on Mus musculus [4], the MRT amounted to 2.4 h. The compound further displayed an AUC in the series on Mus musculus [5] of 764 ng·h/mL. For the same compound, the Cmax in series [27] turned out to be 1100 nM. The same compound had an MTD in the series with P388 [13] of 22.5 mg/kg. In addition, the T1/2 in the series with Mus musculus [7] came to 1.9 h.
Regarding `CC(C)(C)c1cnc(CSc2cnc(NC(=O)Cc3ccccc3)s2)o1`, half-maximal inhibition in series [1] (IC50) was put at 3 µM.
